Assay results as given in patent publication US20170112861A1, “DRUG DELIVERY ENHANCER COMPRISING SUBSTANCE FOR ACTIVATING LYSOPHOSPHOLIPID RECEPTORS” (Osaka University, priority 2014, published 2017).

What was measured:
[1] = system: tumor blood vessels of LLC cell tumors; test: Structural changes in tumor blood vessels after S1P administration (anti-CD31 immunostaining); type: in vivo; details: LLC tumor-bearing mice, S1P 0.3 mg/kg tail vein once daily for three days, 24 hours after final administration
Method: LLC cells were subcutaneously inoculated into C57BL/6 […] mice aged 8 weeks (females, SLC, Inc.) in the same manner as in Example 1. S1P (Avanti Polar Lipids, Inc.) was dissolved in PBS at 10 mM and the solution was stored at -30° C. as a stock solution. Before use, the stock solution was thawed and homogenized with an ultrasonic cleaner (SND Co., Ltd.) for 1 minute. The solution was diluted in PBS before administration so that the concentration of S1P was 0.3 mg/kg in 100 μL PBS. The prepared solution was used for S1P administration. Mice on day 9 post-inoculation of LLC cells (individuals with a tumor volume of 60 to 80 mm^3) were subjected to the experiment. The mice were divided into two groups: control group and S1P group (n=3). From the day of grouping, S1P was administered to the tail vein of the S1P group mice at a dose of 0.3 mg/kg in 100 μL PBS once daily for consecutive three days. To the control group mice, PBS (100 μL) was administered instead of S1P. At 24 hours after the final administration, the tumors were harvested from the mice, and the specimens of tumor blood vessels were prepared in the same manner as in Example 1. The specimens were observed and photographed under a confocal laser microscope (Leica).

[2] = system: Mouse pancreatic vascular endothelial cell line (MS-1); test: In vitro barrier function of endothelial cell-cell junctions (ECIS-Zθ, resistance between cells Rb); type: cell-based; details: MS-1 cells, 10 μM
Method: In vitro barrier function of the cell-cell junctions of vascular endothelial cells in the presence of LPA or VPC 31144 (S) was analyzed using a real-time cell ECIS-Zθ analyzer (Applied Biophysics).
LPA and VPC 31144 (S) were each dissolved in 50% ethanol as a 10 mM LPA stock solution and stored at −30° C. Before use, the LPA stock solution was thawed and homogenized with an ultrasonic cleaner (SND Co., Ltd.) for 1 minute. The solution was diluted in a serum-free culture medium supplemented with 0.1% BSA to a concentration of 10 μM.
Mouse pancreatic vascular endothelial cell line (MS-1) was used. The cells were suspended in DMEM (Sigma) containing 5% FBS. The cell suspension was seeded on a well plate with electrodes (8W10E+, 8 wells) specially designed for the analyzer at a density of 1×10^5 cells in 400 μL per well, and the cells were cultured overnight in an incubator to confluence. The medium was replaced by serum-free culture medium containing 0.1% BSA, and the cells were incubated for 4 hours. The medium was replaced by culture medium (serum-free culture medium containing 0.1% BSA) containing 10 μM LPA or VPC 31144 (S). The medium of the control cultures was replaced by serum-free culture medium containing 0.1% BSA. After replacement of the medium, resistance between cells (Rb) was measured in real time to evaluate the barrier function.

SMILES	formation of a network of tumor blood vessels [1]	speed of barrier function increase ([2]; immediately after addition, compared with LPA)	electric resistance (Rb), barrier function in endothelial cells ([2]; serum-free medium with 0.1% BSA, vs control)
CCCCCCCCCCCCC/C=C/[C@@H](O)[C@@H](N)COP(=O)(O)O [S1P, sphingosine-1-phosphate]	the formation of a network of tumor blood vessels was induced	–	–
CCCCCCCC/C=C\CCCCCCCC(=O)N[C@@H](CO)COP(=O)(O)O [VPC 31144, N-{(1S)-2-hydroxy-1-[(phosphonooxy)methyl]ethyl}(9Z) octadec-9-enamide]	–	more rapidly increased the barrier function immediately after the administration, as compared with addition of LPA	also increased the barrier function in endothelial cells
